Counter-ions that a name gives are not always drawn.
What was measured:
P. vulaaris = assay: Minimum inhibitory concentration (MIC), antibacterial activity; assay type: cell-based
Ps. aeruaingu = assay: as above; assay type: cell-based
[1] = Solubility (physico-chemical properties); assay type: physicochemical; settings: as its trifluoroacetate salt; solvents in which soluble

## CNC(CC(C)C)C(=O)NC1C(=O)NC(CC(N)=O)C(=O)NC2C(=O)NC3C(=O)NC(C(=O)NC(C(=O)O)c4cc(O)cc(O)c4-c4cc3ccc4O)C(OC3C[C@](C)(N)C(=O)C(C)O3)c3ccc(c(Cl)c3)Oc3cc2cc(c3OC2O[C@H](CO)C(O)[C@H](O)C2O)Oc2ccc(cc2Cl)C1O (stereo partly drawn) [Balhimycin trifluoroacetate, Balhimycin]
P. vulaaris
  MIC: > 100 µg/mL
Ps. aeruaingu
  MIC: > 100 µg/mL
[1]
  Solubility: Water, dimethylsulfoxide
